Measurements from US20110305637A1, “RADIOLABELLED PDE10 LIGANDS” (Janssen Pharmaceutica N.V., priority 2009, published 2011).

Key:
[1] = Plasma metabolite analysis; assay type: in vivo; details: rat plasma, 60 min p.i.
Method: The metabolic stability of [^18F]B-1 was studied in normal rats by determination of the relative amounts of parent tracer and metabolites in the blood at 1 hour p.i. of the tracer. After intravenous (i.v.) administration of about 19 MBq [^18F]B-1 via tail vein under anesthesia (2.5% Isoflurane in O2 at 1 L/min flow rate), rats were sacrificed by decapitation at 60 min p.i. (n=2). Blood was collected in heparin containing tubes (4.5 mL LH PST tubes; BD vacutainer, BD, Franklin Lakes, N.J., USA) and immediately centrifuged for 10 min at 3000 rpm to separate the plasma. […] After passing through UV detector (254 nm), the HPLC eluate was collected as 1-mL fractions using an automatic fraction collector and the radioactivity of these fractions was measured in the γ-counter.
The metabolic stability was assessed in plasma collected from normal rats (n=2) 60 min post injection of [^18F]B-1 using RP-HPLC. […]
The metabolic stability of [^18F]B-2 was studied in normal rats by determination of the relative amounts of parent tracer and metabolites in the blood at 1 hour p.i. of the tracer. […] After passing through UV detector (254 nm), the HPLC eluate was collected as 1-mL fractions using an automatic fraction collector and the radioactivity of these fractions was measured in the γ-counter. […]

[2] = Brain metabolite analysis (cerebrum, cerebellum, not perfused); assay type: in vivo, rat; details: 60 min p.i.
Method: (§1) From the same animals that were used for plasma analysis, brain was also dissected and rinsed with saline (Mini Plasco®, Braun, Melsungen, Germany) to rinse off the blood. Cerebrum and cerebellum were collected separately and homogenized in 3 mL and 2 mL of acetonitrile, respectively, for about 3 min. A volume of 1 mL of this homogenate was diluted with an equal volume of water and a part of this homogenate was filtered through 0.22 μm filter (Millex®-GV, Millipore, Ireland). About 0.5 mL of the filtrate was spiked with 5 μL of non-radioactive B-1 solution (1 mg/mL) and then injected on to HPLC, which was connected with an XBridge™ column (C18, […], 3 mm×100 mm, Waters) eluted with mixtures of 0.05 M sodium acetate buffer pH 5.5 and acetonitrile (60:40 v/v) at a flow rate of 0.8 mL/min. Similar to the plasma analysis, the HPLC eluate was collected as 1-mL fractions after passing through UV detector, and the radioactivity in the fractions was measured using the automated gamma counter.
(§2) Based on their higher hydrophilicity we can expect that these radiometabolites may not cross the blood brain barrier (BBB). However, in order to rule out the presence or entry of these metabolites to the brain, we have also analyzed cerebrum and cerebellum samples of rats after isolation and subsequent homogenization at 60 min after injection of [^18F]B-1 (n=2).
as §1, with “of non-radioactive B-2 solution (1” for “of non-radioactive B-1 solution (1”, “and acetonitrile (65:35 v/v) at” for “and acetonitrile (60:40 v/v) at”, “passing through the UV detector,” for “passing through UV detector,”
as §2, with “BBB.” for “the blood brain barrier (BBB).”, “[^18F]B-2” for “[^18F]B-1”

Compound: [18F]CCCn1cc(-c2ccncc2)c(-c2ccc(OCc3ccc4ccccc4n3)cc2)n1 [[^18F]B-1]
- Relative percentage of apolar metabolite(s)/components [1]: 1.6 ± 1.5%
- Relative percentage of apolar metabolite(s) ([2]; rat cerebellum): 1.4 ± 0.9%
- Relative percentage of polar metabolite(s) ([2]; rat cerebellum): 15.3 ± 1.8%
- Relative percentage of apolar metabolite(s) ([2]; rat cerebrum): 0.3 ± 0.0%
- Relative percentage of polar metabolite(s) ([2]; rat cerebrum): 6.6 ± 2.9%
